Measured values taken from US9983218B2, “Indole and indoline derivatives and methods of use thereof” (AbbVie Inc., priority 2008, dated 2018).

Tested on: SK-N-SH human neuroblastoma cells
Assay: Serum deprivation/JC-1 mitochondrial membrane potential (MMP) assay
Assay type: cell-based
Details: Homo sapiens; for Emax: SK-N-SH, percent maximal intensity in JC-1 ratio normalized to 10 μM dimebolin, read-out: JC-1 max %; for EC50: SK-N-SH cells, serum deprivation ~18 hours, JC-1 ratio normalized to peak value for 10 μM dimebolin, single curve fit to mean data of n=2-3, read-out: EC50
Method: SK-N-SH human neuroblastoma cells obtained from American Type Culture Collection (Rockville, Md.) were maintained in the log phase of growth in Minimal Essential Media (MEM), 10% heat inactivated fetal calf serum and 100 units/mL antibiotic-antimycotic (AA). Cells were cultured and maintained in a humidified incubator at 37° C. under 5% CO2 and 95% air. Cells were trypsinized (0.25%) and subcultured every 3 days and used from 15-18 passages. All cell culture supplies were obtained from Invitrogen (Carlsbad, Calif.).
SK-N-SH cells were plated 2-3 days in advance at a concentration of 50,000 cells/well onto collagen coated black-walled 96 well plates (Becton-Dickinson, Bedford, Mass.) in a total volume of 200 μL. On day of experimental treatment, the media containing serum was aspirated from each well and rinsed once with MEM/1% AA without serum. The cells then were incubated overnight in 100 μL of MEM/1% AA (no serum) with and without dimebolin or novel chemical entities overnight for ˜18 hours. The following day, JC-1 dye (5,5′,6,6′-tetrachloro-1,1′,3,3′-tetraethylbenzimidazolcarbocyanide) was diluted 1:10 into MEM media according to the JC-1 Mitochondrial Membrane Potential Assay Kit: (Cayman Chemical Company, Ann Arbor, Mich.) and then 10 μL of the JC-1 dye solution was added to each well. The plates were centrifuged for 5 minutes at 400×g at room temperature followed by 35 minute incubation at 37° C. The plates were washed twice with 200[…] μL of provided Assay Buffer followed an addition of 100 μL of Assay Buffer to each well. The plates were read with an excitation and emission of 560 nm and 595 nM for red fluorescence and with an excitation and emission of 485 nm and 535 nM for green fluorescence to determine the final JC-1 value taking the red to green fluorescence ratio. This assay is based on change in mitochondrial membrane potential (MMP) using this lipophilic cationic dye, JC-1, by monitoring the changes in the ratio of red to green fluorescence as the MMP depolarizes. This change in MMP reflects the health of the cell with healthy, viable cells have a high JC-1 ratio and high MMP whereas apoptotic, unhealthy cells have a low JC-1 ratio or low MMP.
For the ability of compounds to reverse the stress due to serum deprivation and increase the JC-1 ratio, the percent maximal intensity in JC-1 ratio was normalized to that induced by the peak value for 10 μM dimebolin and plotted against the compound concentration to calculate EC50 values and to control for plate-to-plate variability. Concentration-response data were analyzed using GraphPad Prism (San Diego, Calif.); the EC50 values were derived from a single curve fit to the mean data of n=2-3, in duplicates.
All compounds were dissolved in dimethyl sulfoxide at 10 mM stock solutions and tested at a concentration that the dimethyl sulfoxide levels never exceeded 1%.

SMILES	Emax [%]	EC50 [µM]
c1ccc2c(c1)c1c(n2-c2ccc3ccncc3c2)C2CCN(CC2)C1 [Example 270, 6-(isoquinolin-7-yl)-3,4,5,6-tetrahydro-1H-2,5-ethanoazepino[4,3-b]indole]	270	2.81
Fc1ccc2c(c1)c1c(n2Cc2cn3nc(Cl)ccc3n2)C2CCN(CC2)C1 [Example 253, 6-[(6-chloroimidazo[1,2-b]pyridazin-2-yl)methyl]-9-fluoro-3,4,5,6-tetrahydro-1H-2,5-ethanoazepino[4,3-b]indole]	185	4.4
Cc1ccc2c(c1)c1c(n2CCc2ccc(C)nn2)C2CCN(CC2)C1 [Example 148, 9-methyl-6-[2-(6-methylpyridazin-3-yl)ethyl]-3,4,5,6-tetrahydro-1H-2,5-ethanoazepino[4,3-b]indole]	99	3.52
NC(=O)c1ccc(-n2c3c(c4ccccc42)CN2CCC3CC2)nc1 [Example 266, 6-(1,3,4,5-tetrahydro-6H-2,5-ethanoazepino[4,3-b]indol-6-yl)nicotinamide]	127	10.7
Fc1ccc2c(c1)c1c(n2Cc2ccccn2)C2CCN(CC2)C1 [Example 184, 9-fluoro-6-(pyridin-2-ylmethyl)-3,4,5,6-tetrahydro-1H-2,5-ethanoazepino[4,3-b]indole]	175	10.7
O=c1cnc2ccc(-n3c4c(c5cc(F)ccc53)CN3CCC4CC3)cc2[nH]1 [Example 260, 7-(9-fluoro-1,3,4,5-tetrahydro-6H-2,5-ethanoazepino[4,3-b]indol-6-yl)quinoxalin-2(1H)-one]	191	2.91
c1ccc2c(c1)c1c(n2-c2ccc3c(c2)CCNC3)C2CCN(CC2)C1 [Example 267, 6-(1,2,3,4-tetrahydroisoquinolin-6-yl)-3,4,5,6-tetrahydro-1H-2,5-ethanoazepino[4,3-b]indole]	70	9.72
Fc1ccc2c(c1)c1c(n2Cc2ccncc2)C2CCN(CC2)C1 [Example 186, 9-fluoro-6-(pyridin-4-ylmethyl)-3,4,5,6-tetrahydro-1H-2,5-ethanoazepino[4,3-b]indole]	93	14.6
O=c1ccccn1-c1cccc(-n2c3c(c4cc(F)ccc42)CN2CCC3CC2)n1 [Example 258, 6′-(9-fluoro-1,3,4,5-tetrahydro-6H-2,5-ethanoazepino[4,3-b]indol-6-yl)-2H-1,2′-bipyridin-2-one]	149	2.99
Cc1ccc2c(c1)c1c(n2/C=C/c2ccc(C)nc2)C2CCN(CC2)C1 [Example 146, 9-methyl-6-[(E)-2-(6-methylpyridin-3-yl)vinyl]-3,4,5,6-tetrahydro-1H-2,5-ethanoazepino[4,3-b]indole]	264	2.84
Cc1ccc2c(c1)c1c(n2CCc2ccc(Cl)cc2)C2CCCN(C1)C2 (stereo not shown) [Example 204, 7-[2-(4-chlorophenyl)ethyl]-10-methyl-1,3,4,5,6,7-hexahydro-2,6-methanoazocino[4,3-b]indole]	182	3.23
Fc1ccc2c(c1)c1c(n2Cc2ccc(N3CCCCC3)nc2)C2CCN(CC2)C1 [Example 241, 9-fluoro-6-{[6-(piperidin-1-yl)pyridin-3-yl]methyl}-3,4,5,6-tetrahydro-1H-2,5-ethanoazepino[4,3-b]indole]	156	7.96
Fc1ccc2c(c1)c1c(n2Cc2ccc(Cl)nc2)CC2CNC1C2 (stereo not shown) [Example 285, 6-[(6-chloropyridin-3-yl)methyl]-9-fluoro-1,2,3,4,5,6-hexahydro-1,4-methanoazepino[4,3-b]indole]	149	9.41
CCOC(=O)N1[C@H]2CC[C@@H]1c1c(n(CCc3ccc(C)nc3)c3ccc(C)cc13)C2 [Example 16, ethyl (7S,10R)-2-methyl-5-[2-(6-methylpyridin-3-yl)ethyl]-5,6,7,8,9,10-hexahydro-7,10-epiminocyclohepta[b]indole-11-carboxylate]	129	8.38
Fc1ccc2c(c1)c1c(n2-c2ccc3cccnc3c2)C2CCN(CC2)C1 [Example 226, 9-fluoro-6-quinolin-7-yl-3,4,5,6-tetrahydro-1H-2,5-ethanoazepino[4,3-b]indole]	307	1.68
Cc1ccc2c(c1)c1c(n2CCc2scnc2C)CC2CCC1N2C (stereo not shown) [Example 35, 2,11-dimethyl-5-[2-(4-methyl-1,3-thiazol-5-yl)ethyl]-5,6,7,8,9,10-hexahydro-7,10-epiminocyclohepta[b]indole]	78	6.71
Fc1ccc2c(c1)c1c(n2Cc2ccc(C(F)(F)F)nc2)C2CCN(CC2)C1 [Example 183, 9-fluoro-6-{[6-(trifluoromethyl)pyridin-3-yl]methyl}-3,4,5,6-tetrahydro-1H-2,5-ethanoazepino[4,3-b]indole]	172	8.97
Cc1cc(Cn2c3c(c4cc(F)ccc42)CN2CCC3CC2)on1 [Example 252, 9-fluoro-6-[(3-methyl-1,2-oxazol-5-yl)methyl]-3,4,5,6-tetrahydro-1H-2,5-ethanoazepino[4,3-b]indole]	109	6.2
Cc1ccc2c(c1)c1c(n2CC(=O)Nc2ccc(Cl)cc2)C2CCN(CC2)C1 [Example 155, N-(4-chlorophenyl)-2-(9-methyl-1,3,4,5-tetrahydro-6H-2,5-ethanoazepino[4,3-b]indol-6-yl)acetamide]	63	7.53
Cc1ncc(-n2c3c(c4cc(F)ccc42)CN2CCC3CC2)cn1 [Example 263, 9-fluoro-6-(2-methylpyrimidin-5-yl)-3,4,5,6-tetrahydro-1H-2,5-ethanoazepino[4,3-b]indole]	108	11
Cc1ccc2c(c1)c1c(n2CCc2ccccc2C)C[C@H]2CCC[C@@H]1N2 (single isomer, unassigned) [Example 127]	151	3.69
CN(CC1OCCO1)c1ccc(Cn2c3c(c4cc(F)ccc42)CN2CCC3CC2)cn1 [Example 243, N-(1,3-dioxolan-2-ylmethyl)-5-[(9-fluoro-1,3,4,5-tetrahydro-6H-2,5-ethanoazepino[4,3-b]indol-6-yl)methyl]-N-methylpyridin-2-amine]	169	8.36
Cc1ccc2c(c1)c1c(n2CCc2ccc(C)nc2)CC2CCC1N2CC(F)(F)F (stereo not shown) [Example 14, 2-methyl-5-[2-(6-methylpyridin-3-yl)ethyl]-11-(2,2,2-trifluoroethyl)-5,6,7,8,9,10-hexahydro-7,10-epiminocyclohepta[b]indole]	110	4.79
Cc1ccc(CCn2c3c(c4cc(C(C)C)ccc42)C2CCC(C3)N2C)cn1 (stereo not shown) [Example 99, 2-isopropyl-11-methyl-5-[2-(6-methylpyridin-3-yl)ethyl]-5,6,7,8,9,10-hexahydro-7,10-epiminocyclohepta[b]indole]	138	3.07
O=C1COc2cc(-n3c4c(c5ccccc53)CN3CCC4CC3)ccc2N1 [Example 275, 7-(1,3,4,5-tetrahydro-6H-2,5-ethanoazepino[4,3-b]indol-6-yl)-2H-1,4-benzoxazin-3(4H)-one]	130	3.44
c1cnc2ccc(-n3c4c(c5ccccc53)CN3CCC4CC3)cc2c1 [Example 233, 6-quinolin-6-yl-3,4,5,6-tetrahydro-1H-2,5-ethanoazepino[4,3-b]indole]	250	0.8
